Measured values: patent US9302999B2, “Substituted triazoles as herbicides” (E. I. DU PONT DE NEMOURS AND COMPANY, priority 2012, dated 2016)

What was measured:
Type in all cases: in vivo
[1] = test system: deadnettle (henbit deadnettle, Lamium amplexicaule); test: Test C postemergence: deadnettle
From the text: (§1) At the same time, plants selected from these crop and weed species and also barley (winter barley, Hordeum vulgare), canarygrass (Phalaris minor), chickweed (common chickweed, Stellaria media) windgrass (Apera spica-venti) and deadnettle (henbit deadnettle, Lamium amplexicaule) were planted in pots containing Redi-Earth® planting medium (Scotts Company, 14111 Scottslawn Road, Marysville, Ohio 43041) comprising spaghnum peat moss, vermiculite, wetting agent and starter nutrients and treated with postemergence applications of test chemicals formulated in the same manner. Plants ranged in height from 2 to 18 cm (1- to 4-leaf stage) for postemergence treatments.
(§2) Treated plants and controls were maintained in a greenhouse for 13 to 15 days, after which time all species were compared to controls and visually evaluated. Plant response ratings, summarized in Table C, are based on a scale of 0 to 100 where 0 is no effect and 100 is complete control. A dash (-) response means no test result.

[2] = test system: galium (catchweed bedstraw, Galium aparine); test: Test D pre-/postemergence: galium
From the text: Seeds of plant species selected from bluegrass (annual bluegrass, Poa annua), blackgrass (Alopecurus myosuroides), canarygrass (Phalaris minor), chickweed (common chickweed, Stellaria media), galium (catchweed bedstraw, Galium aparine), bromegrass, downy (downy bromegrass, Bromus tectorum), field poppy (Papaver rhoeas), field violet (Viola arvensis), foxtail, green (green foxtail, Setaria viridis), deadnettle (henbit deadnettle, Lamium amplexicaule), ryegrass, Italian (Italian ryegrass, Lolium multiflorum), kochia (Kochia scoparia), lambsquarters (Chenopodium album), oilseed rape (Brassica napus), pigweed (Amaranthus retroflexus), Russian thistle (Salsola iberica), chamomile (scentless chamomile, Matricaria inodora), speedwell (bird's-eye speedwell, Veronica persica), barley, spring (spring barley, Hordeum vulgare), wheat, spring (spring wheat, Triticum aestivum), buckwheat, wild (wild buckwheat, Polygonum convolvulus), mustard, wild (wild mustard, Sinapis arvensis), oat, wild (wild oat, Avena fatua), radish, wild (wild radish, Raphanus raphanistrum), windgrass (Apera spica-venti), barley, winter (winter barley, Hordeum vulgare), and wheat, winter (winter wheat, Triticum aestivum) were planted into a silt loam soil and treated preemergence with test chemicals formulated in a non-phytotoxic solvent mixture which included a surfactant. At the same time, these same crop and weed species were planted in pots containing the planting medium comprising spaghnum peat moss, vermiculite, wetting agent and starter nutrients and treated with postemergence applications of the test chemicals formulated in the same manner. Plants ranged in height from 2 to 18 cm (1- to 4-leaf stage).
Treated plants and controls were maintained in a controlled growth environment for 14 to 21 days after which time all species were compared to controls and visually evaluated. Plant response ratings, summarized in Table D, are based on a scale of 0 to 100 where 0 is no effect and 100 is complete control. A dash (-) response means no test result.

[3] = test system: woolly cupgrass (Eriochloa villosa); test: Test C pre-/postemergence: woolly cupgrass
From the text: Seeds of plant species selected from blackgrass (Alopecurus myosuroides), bromegrass, downy (downy bromegrass, Bromus tectorum), foxtail, green (green foxtail, Setaria viridis), ryegrass, Italian (Italian ryegrass, Lolium multiflorum), winter wheat (Triticum aestivum), wild oat (Avena fatua), galium (catchweed bedstraw, Galium aparine), bermudagrass (Cynodon dactylon), surinam grass (Brachiaria decumbens), cocklebur (common cocklebur, Xanthium strumarium), corn (Zea mays), large crabgrass (Digitaria sanguinalis), woolly cupgrass (Eriochloa villosa), foxtail, giant (giant foxtail, Setaria faberii), goosegrass (Eleusine indica), johnsongrass (Sorghum halepense), kochia (Kochia scoparia), lambsquarters (Chenopodium album), morningglory (Ipomoea coccinea), nightshade (eastern black nightshade, Solanum ptycanthum), nutsedge, yellow (yellow nutsedge, Cyperus esculentus), pigweed (Amaranthus retroflexus), ragweed (common ragweed, Ambrosia elation), soybean (Glycine max), common (oilseed) sunflower (Helianthus annuus), Russian thistle (Salsola kali) and velvetleaf (Abutilon theophrasti) were planted into a blend of loam soil and sand and treated preemergence with test chemicals formulated in a non-phytotoxic solvent mixture which included a surfactant.
as §1, §2

[4] = test system: sedge, umbrella (small-flower umbrella sedge Cyperus difformis); test: Test B flooded paddy: sedge, umbrella; conditions: Flood, applied to paddy water at 2-leaf stage, visually evaluated after 13 to 15 days
Summary of the method: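 Response scored visually, 0–100 relative to controls, 13–15 days after the compound was applied into paddy water; plants were at the 2-leaf stage in pots kept flooded to 3 cm.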

[5] = 31 g ai/ha, scale 0 to 100 (0 no effect, 100 complete control)
[6] = 62 g ai/ha, scale 0 to 100 (0 no effect, 100 complete control)
[7] = 125 g ai/ha, scale 0 to 100, 0 no effect, 100 complete control
[8] = Postemergence, 31 g ai/ha, scale 0 to 100 (0 no effect, 100 complete control)
[9] = Postemergence, 62 g ai/ha, scale 0 to 100 (0 no effect, 100 complete control)
[10] = Postemergence, 125 g ai/ha, scale 0 to 100, 0 no effect, 100 complete control
[11] = Postemergence, 250 g ai/ha, scale 0 to 100 (0 no effect, 100 complete control)
[12] = Postemergence, 16 g ai/ha, scale 0 to 100
[13] = Preemergence, 31 g ai/ha, scale 0 to 100 (0 no effect, 100 complete control)
[14] = Preemergence, 125 g ai/ha, scale 0 to 100
[15] = Preemergence, 250 g ai/ha, scale 0 to 100
[16] = Postemergence, 250 g ai/ha, scale 0 to 100
[17] = Preemergence, 31 g ai/ha, scale of 0 to 100, 0 is no effect, 100 is complete control
[18] = Preemergence, 62 g ai/ha, scale of 0 to 100, 0 is no effect, 100 is complete control
[19] = Preemergence, 125 g ai/ha, scale 0 to 100, 0 no effect, 100 complete control
[20] = Preemergence, 250 g ai/ha, scale 0 to 100, 0 no effect, 100 complete control

Structure (SMILES) | Plant response rating, Deadnettle [1, 5] | Plant response rating, Deadnettle [1, 6] | Plant response rating, Deadnettle [1, 7] | Plant response rating, Deadnettle ([1]; 250 g ai/ha, scale 0 to 100) | Plant response rating, Cupgrass, Woolly [3, 8] | Plant response rating, Cupgrass, Woolly [3, 9] | Plant response rating, Cupgrass, Woolly [3, 10] | Plant response rating, Cupgrass, Woolly [3, 16] | Plant response rating, Cupgrass, Woolly [3, 17] | Plant response rating, Cupgrass, Woolly [3, 18] | Plant response rating, Cupgrass, Woolly [3, 19] | Plant response rating, Cupgrass, Woolly [3, 20] | Plant response rating, Sedge, Umbrella (0 to 100 scale, 0 is no effect, 100 is complete control) ([4]; 250 g ai/ha) | further results
Cc1nn(-c2ccc(F)cc2)nc1Cc1ccnc(C(F)(F)F)c1 [Compound 16, 4-[[2-(4-fluorophenyl)-5-methyl-2H-1,2,3-triazol-4-yl]methyl]-2-(trifluoromethyl)pyridine] | 50 | 98 | 98 | 100 | 5 | 20 | 65 | 75 |  |  |  |  |  | Plant response rating: Galium [2, 8]: 40; Plant response rating: Galium [2, 9]: 50; Plant response rating: Galium [2, 10]: 60; Plant response rating: Galium [2, 11]: 70; Plant response rating, Galium [2, 12]: 20; Plant response rating, Galium ([2]; Preemergence, 16 g ai/ha, scale 0 to 100 (0 no effect, 100 complete control)): 0; Plant response rating, Galium [2, 13]: 0; Plant response rating, Galium [2, 14]: 20; Plant response rating, Galium [2, 15]: 20
Cc1nn(-c2ccc(C(F)(F)F)cc2)nc1Cc1ccnc(C(F)(F)F)c1 [Compound 47, 4-[[5-methyl-2-[4-(trifluoromethyl)phenyl]-2H-1,2,3-triazol-4-yl]methyl]-2-(trifluoromethyl)pyridine] | 95 | 100 | 100 | 100 | 55 | 65 | 80 | 90 | 45 | 80 | 95 | 98 |  | 
Cc1nn(-c2ccc(C(F)(F)F)cc2)nc1Cc1cccc(C(F)(F)F)c1 [Compound 124] | 80 | 98 | 98 |  | 5 | 10 | 20 |  |  |  |  |  |  | Plant response rating, Deadnettle ([1]; 16 g ai/ha, scale 0 to 100, 0 no effect, 100 complete control): 75; Plant response rating, Cupgrass, Woolly ([3]; Postemergence, 16 g ai/ha, scale 0 to 100, 0 no effect, 100 complete control): 5
Cc1nn(-c2ccc(F)cc2)nc1Oc1ccnc(C(F)(F)F)c1 [Compound 129, 4-[[2-(4-fluorophenyl)-5-methyl-2H-1,2,3-triazol-4-yl]oxy]-2-(trifluoromethyl)pyridine] | 100 | 100 | 100 | 100 | 35 | 65 | 65 | 70 | 80 | 95 | 98 | 98 |  | Plant response rating: Galium [2, 8]: 50; Plant response rating: Galium [2, 9]: 75; Plant response rating: Galium [2, 10]: 85; Plant response rating: Galium [2, 11]: 98; Plant response rating, Galium [2, 12]: 40; Plant response rating, Galium [2, 13]: 0; Plant response rating, Galium ([2]; Preemergence, 62 g ai/ha, scale 0 to 100): 100; Plant response rating, Galium [2, 14]: 100; Plant response rating, Galium [2, 15]: 100
Fc1ccc(-n2nc(Cc3ccnc(C(F)(F)F)c3)c(OCC(F)(F)F)n2)cc1 [Compound 142] | 100 | 100 | 100 | 100 | 40 | 40 | 75 | 85 | 55 | 70 | 95 | 98 | 90 | 
Cc1nn(-c2ccc(F)c(C(F)(F)F)c2)nc1Oc1ccnc(C(F)(F)F)c1 [Compound 147] |  |  |  |  |  |  |  |  | 50 | 55 | 95 | 98 | 80 | Plant response rating: Galium [2, 8]: 65; Plant response rating: Galium [2, 9]: 75; Plant response rating: Galium [2, 10]: 90; Plant response rating, Galium [2, 12]: 55
CCCc1nn(-c2ccc(F)cc2)nc1Cc1ccnc(C(F)(F)F)c1 [Compound 153] |  |  |  |  |  |  |  |  |  |  |  |  | 90 | 
Cc1nn(-c2ccc(C(F)(F)F)c(F)c2)nc1Cc1ccnc(C(F)(F)F)c1 [Compound 162] |  |  |  |  |  |  |  |  |  |  |  |  |  | Plant response rating, Sedge, Umbrella (0 to 100 scale, 0 is no effect, 100 is complete control) ([4]; 125 g ai/ha): 80
CCc1nn(-c2ccc(F)cc2)nc1Oc1ccnc(C(F)(F)F)c1 [Compound 166] |  |  |  |  |  |  |  |  |  |  |  |  |  | Plant response rating, Sedge, Umbrella (0 to 100 scale, 0 is no effect, 100 is complete control) ([4]; 125 g ai/ha): 70
CCCc1nn(-c2ccc(C(F)(F)F)c(F)c2)nc1Oc1ccnc(C(F)(F)F)c1 [Compound 185] |  |  |  |  |  |  |  |  |  |  |  |  | 95 | 
CCOc1nn(-c2ccc(Br)cc2)nc1Cc1ccnc(C(F)(F)F)c1 [Compound 189] |  |  |  |  |  |  |  |  |  |  |  |  |  | Plant response rating, Sedge, Umbrella (0 to 100 scale, 0 is no effect, 100 is complete control) ([4]; 125 g ai/ha): 0
